Test results taken from US9050346B2, “Bromodomain inhibitors” (AbbVie Inc., priority 2013, dated 2015).

Tests used:
BRD4 (BDII_E352-M457) = molecular target: T1, BRD4 (BDII_E352-M457) (Homo sapiens, UniProt O60885); test: TR-FRET bromodomain binding assay, BRD4 second bromodomain
T1 construct: made in house
Procedure: (§1) A time-resolved fluorescence resonance energy transfer (TR-FRET) assay was used to determine the affinities of compounds of the Examples listed in Table 1 for each bromodomain of BRD4. His-tagged first (BD1: amino acids K57-E168) and second (BD2: amino acids E352-E168) bromodomains of BRD4 were expressed and purified. An Alexa647-labeled BET-inhibitor was used as the fluorescent probe in the assay.
(§2) Compound dilution series were prepared in DMSO via an approximately 3-fold serial dilution from one of the following: • Assay method A: 2.5 mM-800 nM • Assay method B: 2.5 mM-797 nM • Assay method C: 1250 μM-21 nM • Assay method D: 500 μM-8.5 nM • Assay method E: 0.47 mM to 7.8 nM • Assay method F: 250 μM-4.2 nM • Assay method G: 0.047 mM to 0.78 nM or 5-fold serial dilution from Assay Method A or Assay Method B.
(§3) For Assay methods A, C, D, and F: Compounds were then diluted 6:100 in assay buffer (20 mM Sodium Phosphate, pH 6.0, 50 mM NaCl, 1 mM Ethylenediaminetetraacetic acid, 0.01% Triton X-100, 1 mM DL-Dithiothreitol) to yield 3× working solutions. Six microliters (μL) of the working solution was then transferred to white, low-volume assay plates (Costar #3673). A 1.5× assay mixture containing His-tagged bromodomain, Europium-conjugated anti-His antibody (Invitrogen PV5596) and the Alexa-647-conjugated probe molecule was also prepared. Twelve μL of this solution were added to the assay plate to reach a final volume of 18 μL.
(§4) For Assay methods B, E, and G: Compound dilutions were added directly into white, low-volume assay plates (Perkin Elmer Proxiplate 384 Plus#6008280) using a Labcyte Echo in conjunction with Labcyte Access and Thermo Multidrop CombinL robotics. Compounds were then suspended in eight microliters (μL) of assay buffer (20 mM Sodium Phosphate, pH 6.0, 50 mM NaCl, 1 mM Ethylenediaminetetraacetic acid disodium salt dihydrate, 0.01% Triton X-100, 1 mM DL-Dithiothreitol) containing His-tagged bromodomain, Europium-conjugated anti-His antibody (Invitrogen PV5596) and Alexa-647-conjugated probe.
(§5) The final concentration of 1× assay mixture for assay methods A, B, C, D, E, F, and G contains 2% DMSO, 8 nM His-tagged bromodomain, 1 nM Europium-conjugated anti-His-tag antibody and 100 nM or 30 nM probe (for BDI or BDII, respectively) and compound concentration in the range of: 50 μM-16 nM for method A, 49.02 μM-15.63 nM for method B, 25 μM-423 pM for method C, 10 μM-169 pM for method D, 9.19 μM-150 pM for method E, 5 μM-85 pM for method F, and 0.92 μM-15 pM for method G.
(§6) After a one-hour equilibration at room temperature, TR-FRET ratios were determined using an Envision multilabel plate reader (Ex 340, Em 495/520).
(§7) TR-FRET data were normalized to the means of 24 no-compound controls (“high”) and 8 controls containing 1 μM un-labeled probe (“low”). Percent inhibition was plotted as a function of compound concentration and the data were fit with the 4 parameter logistic equation to obtain IC50s Inhibition constants (Ki) were calculated from the IC50s, probe Kd and probe concentration. Typical Z′ values were between 0.65 and 0.75. The minimum significant ratio was determined to evaluate assay reproducibility (Eastwood et al., (2006) J Biomol Screen, 11: 253-261). The MSR was determined to be 2.03 for BDI and 1.93 for BDII, and a moving MSR (last six run MSR overtime) for both BDI and BDII was typically <3.

[1] = system: breast cancer cell line MX-1; test: MX-1 cell line proliferation assay (3-day, Cell Titer Glo); format: cell-based; conditions: Homo sapiens, MX1, MX-1 cells, 72 h, top concentration 3 μM, read-out: Cellular proliferation: EC50
Procedure: The impact of compounds of the Examples on cancer cell proliferation was determined using the breast cancer cell line MX-1 (ATCC) in a 3-day proliferation assay and the data are reported in Table 1. MX-1 cells were maintained in RPMI 1640 medium (Sigma) supplemented with 10% FBS at 37 C.° and an atmosphere of 5% CO2. For compound testing, MX-1 cells were plated in 96-well black bottom plates at a density of 5000 cells/well in 90 μL of culture media and incubated at 37° overnight to allow cell adhesion and spreading. Compound dilution series were prepared in DMSO via a 3-fold serial dilution from 3 mM to 0.1 μM. The DMSO dilution series were then diluted 1:100 in phosphate buffered saline, and 10 μL of the resulted solution were added to the appropriate wells of the MX-1 cell plate. The final compound concentrations in the wells were 3, 1, 0.3, 0.1, 0.03, 0.01, 0.003, 0.001, 0.0003 and 0.0001 μM.
Luminescence readings from the Cell Titer Glo assay were normalized to the DMSO treated cells and analyzed using the GraphPad Prism software with sigmoidal curve fitting to obtain EC50s. The minimum significant ratio (MSR) was determined to evaluate assay reproducibility (Eastwood et al., (2006) J Biomol Screen, 11: 253-261).

BRD4 (BDI_K57-E168) = molecular target: T2, BRD4 (BDI_K57-E168) (Homo sapiens, UniProt O60885); test: TR-FRET bromodomain binding assay, BRD4 first bromodomain; conditions: His-tagged BD1, 100 nM Alexa647 probe; Ki calculated from IC50; dilution protocol A-G
T2 construct: BD1: amino acids K57-E168; made in house
Procedure: as §1, §2, §3, §4, §5, §6, §7

| Ki (BRD4 (BDII_E352-M457)) | EC50 [1] | Ki (BRD4 (BDI_K57-E168)) | Structure (SMILES) |
| --- | --- | --- | --- |
| 11.3 nM | 210 nM | 30.1 nM | CO[C@H]1C[C@H](NC(=O)c2cc3c(-c4ccccc4Oc4ccccc4)[nH]c(C)c3c(=O)[nH]2)C1 [Example 50, N-(trans-3-methoxycyclobutyl)-3-methyl-4-oxo-1-(2-phenoxyphenyl)-4,5-dihydro-2H-pyrrolo[3,4-c]pyridine-6-carboxamide] |
| 615 nM | 737 nM | 95.6 nM | CCOC(=O)c1cc2c(-c3ccc(-c4cc(C)n[nH]4)cc3)[nH]c(C)c2c(=O)[nH]1 [Example 8, ethyl 3-methyl-1-[4-(3-methyl-1H-pyrazol-5-yl)phenyl]-4-oxo-4,5-dihydro-2H-pyrrolo[3,4-c]pyridine-6-carboxylate] |
| 28.5 nM | 71.1 nM | 7.57 nM | Cc1[nH]c(-c2ccccc2Oc2ccccc2)c2cc(-c3nc(-c4cnccn4)no3)[nH]c(=O)c12 [Example 65, 3-methyl-1-(2-phenoxyphenyl)-6-(3-(pyrazin-2-yl)-1,2,4-oxadiazol-5-yl)-2H-pyrrolo[3,4-c]pyridin-4(5H)-one] |
| 254 nM | 394 nM | 22.7 nM | Cc1[nH]c(-c2cc(S(C)(=O)=O)ccc2Oc2ccc(F)cc2F)c2cn[nH]c(=O)c12 [Example 81, 5-[2-(2,4-difluorophenoxy)-5-(methylsulfonyl)phenyl]-7-methyl-2,6-dihydro-1H-pyrrolo[3,4-d]pyridazin-1-one] |
| 96.4 nM | 139 nM | 5.05 nM | CCOC(=O)c1cc2c(-c3cc(F)ccc3OC3CCCCC3)[nH]c(C)c2c(=O)[nH]1 [Example 48, ethyl 1-[2-(cyclohexyloxy)-5-fluorophenyl]-3-methyl-4-oxo-4,5-dihydro-2H-pyrrolo[3,4-c]pyridine-6-carboxylate] |
| 1180 nM | > 3000 nM | 82.3 nM | CCOC(=O)c1nc2c(-c3ccccc3Oc3ccccc3)[nH]c(C)c2c(=O)[nH]1 [Example 87, ethyl 5-methyl-4-oxo-7-(2-phenoxyphenyl)-4,6-dihydro-3H-pyrrolo[3,4-d]pyrimidine-2-carboxylate] |
| 78 nM | 80.5 nM | 9.45 nM | Cc1[nH]c(-c2ccccc2Oc2ccccc2)c2cc(-c3nc(-c4ccccn4)no3)[nH]c(=O)c12 [Example 67, 3-methyl-1-(2-phenoxyphenyl)-6-(3-(pyridin-2-yl)-1,2,4-oxadiazol-5-yl)-2H-pyrrolo[3,4-c]pyridin-4(5H)-one] |
| 6.08 nM | 270 nM | 1.66 nM | Cc1[nH]c(-c2cc(NS(C)(=O)=O)ccc2Oc2ccc(F)cc2F)c2cc(C(N)=O)[nH]c(=O)c12 [Example 19, 1-(2-(2,4-difluorophenoxy)-5-(methylsulfonamido)phenyl)-3-methyl-4-oxo-4,5-dihydro-2H-pyrrolo[3,4-c]pyridine-6-carboxamide] |
| 8.8 nM | 30 nM | 2.12 nM | CCOC(=O)c1cc2c(-c3cc(CS(C)(=O)=O)ccc3Oc3ccc(F)cc3F)[nH]c(C)c2c(=O)[nH]1 [Example 68, ethyl 1-{2-(2,4-difluorophenoxy)-5-[(methylsulfonyl)methyl]phenyl}-3-methyl-4-oxo-4,5-dihydro-2H-pyrrolo[3,4-c]pyridine-6-carboxylate] |
| 45.1 nM | 60.8 nM | 6.25 nM | Cc1[nH]c(-c2ccccc2Oc2ccc(F)cc2F)c2cc(C(N)=O)[nH]c(=O)c12 [Example 23, 1-[2-(2,4-difluorophenoxy)phenyl]-3-methyl-4-oxo-4,5-dihydro-2H-pyrrolo[3,4-c]pyridine-6-carboxamide] |
| 48.8 nM | 1350 nM | 92.6 nM | Cc1[nH]c(-c2ccccc2Oc2ccccc2)c2cc(C(=O)N3CCC(O)CC3)[nH]c(=O)c12 [Example 30, 6-(4-hydroxypiperidine-1-carbonyl)-3-methyl-1-(2-phenoxyphenyl)-2H-pyrrolo[3,4-c]pyridin-4(5H)-one] |
| 92.3 nM | 163 nM | 3.12 nM | Cc1[nH]c(-c2ccccc2Oc2ccccc2)c2cc(C(=O)NCCN3CCCC3)[nH]c(=O)c12 [Example 25, 3-methyl-4-oxo-1-(2-phenoxyphenyl)-N-[2-(pyrrolidin-1-yl)ethyl]-4,5-dihydro-2H-pyrrolo[3,4-c]pyridine-6-carboxamide] |
| 56.9 nM | > 3000 nM | 22.4 nM | Cc1[nH]c(-c2cc(S(C)(=O)=O)ccc2Oc2ccc(F)cc2F)c2cc(C(N)=O)[nH]c(=O)c12 [Example 42, 1-[2-(2,4-difluorophenoxy)-5-(methylsulfonyl)phenyl]-3-methyl-4-oxo-4,5-dihydro-2H-pyrrolo[3,4-c]pyridine-6-carboxamide] |
| 14.1 nM | 23.4 nM | 4.38 nM | CNC(=O)c1cc2c(-c3ccccc3Oc3ccccc3)[nH]c(C)c2c(=O)[nH]1 [Example 13, N,3-dimethyl-4-oxo-1-(2-phenoxyphenyl)-4,5-dihydro-2H-pyrrolo[3,4-c]pyridine-6-carboxamide] |
| 9.51 nM | 47.3 nM | 1.44 nM | CCOC(=O)c1cc2c(-c3cc(NS(C)(=O)=O)ccc3Oc3ccccc3)[nH]c(C)c2c(=O)[nH]1 [Example 5, ethyl 3-methyl-1-(5-(methylsulfonamido)-2-phenoxyphenyl)-4-oxo-4,5-dihydro-2H-pyrrolo[3,4-c]pyridine-6-carboxylate] |
| 59.7 nM | 223 nM | 3.67 nM | Cc1[nH]c(-c2ccccc2Oc2ccccc2)c2cc(C(=O)NCC3CNCC3(F)F)[nH]c(=O)c12 (stereo not drawn) [Example 59, N-[(4,4-difluoropyrrolidin-3-yl)methyl]-3-methyl-4-oxo-1-(2-phenoxyphenyl)-4,5-dihydro-2H-pyrrolo[3,4-c]pyridine-6-carboxamide] |
| 2.39 nM | 146 nM | 1.64 nM | Cc1[nH]c(-c2cc(NS(C)(=O)=O)ccc2Oc2ccccc2)c2cc(C(N)=O)[nH]c(=O)c12 [Example 20, 3-methyl-1-(5-(methylsulfonamido)-2-phenoxyphenyl)-4-oxo-4,5-dihydro-2H-pyrrolo[3,4-c]pyridine-6-carboxamide] |
| 158 nM | 102 nM | 22.8 nM | Cc1[nH]c(-c2cc(Cl)ccc2Oc2ccc(F)cc2F)c2cc(C(N)=O)[nH]c(=O)c12 [Example 32, 1-[5-chloro-2-(2,4-difluorophenoxy)phenyl]-3-methyl-4-oxo-4,5-dihydro-2H-pyrrolo[3,4-c]pyridine-6-carboxamide] |
